Measured values published in patent US20260034253A1, “NECTIN-4 MINIPROTEIN CONJUGATES” (Aktis Oncology, Inc., priority 2022, published 2026).
Numbered stars: 1 amine (or outer) side, 2 acyl side, 3 side chain; on linkers, the order of the positions; unused ones are H or OH. Bridge positions count the residues as written; N and C are the ends. Square brackets hold non-standard residues; d marks the D form. Ends that are not written are not given here. * marks the point of attachment. Biotin = O=C1N[C@H]2[C@H](CS[C@H]2CCCCC(=O)*)N1; X1 = O=C([C@H](CCCCO)N[*:1])[*:2]; Cit = NC(=O)NCCC[C@H](N)C(=O)O; PEG4 = NCCOCCOCCOCCOCCC(=O)O

What follows are compounds tested against T1, human Nectin-4 (Homo sapiens, UniProt Q96NY8) (assay: Surface plasmon resonance (Biacore T200) binding to human Nectin-4). Details: Table 2B, binding affinities of exemplary compounds to Nectin-4, read-out: Binding Affinity.
T1 sequence (Q96NY8 32-510): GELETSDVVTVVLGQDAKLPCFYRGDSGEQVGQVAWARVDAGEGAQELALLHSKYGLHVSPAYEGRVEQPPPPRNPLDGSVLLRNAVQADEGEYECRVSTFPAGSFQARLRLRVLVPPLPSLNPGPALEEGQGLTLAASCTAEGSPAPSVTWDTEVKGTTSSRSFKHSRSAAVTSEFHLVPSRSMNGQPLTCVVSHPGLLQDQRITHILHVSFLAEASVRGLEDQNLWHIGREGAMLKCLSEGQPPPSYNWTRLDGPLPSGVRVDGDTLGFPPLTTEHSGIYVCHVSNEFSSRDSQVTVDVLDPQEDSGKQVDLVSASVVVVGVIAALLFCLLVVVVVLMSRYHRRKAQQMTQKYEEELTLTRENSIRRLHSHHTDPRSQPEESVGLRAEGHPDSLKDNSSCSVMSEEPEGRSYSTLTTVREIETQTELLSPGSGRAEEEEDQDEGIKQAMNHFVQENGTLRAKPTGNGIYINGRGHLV
Experimental: Peptide binding affinity to the target protein was measured by SPR using a Biacore T200 instrument. The target protein was covalently coupled to a Biacore chip surface using free amine-coupling chemistry (NHS/EDC) and all uncoupled sites were blocked with ethanolamine. Free peptides were flowed over the target protein surface in increasing concentrations to measure association (KA) and dissociation ([…]) to calculate the equilibrium dissociation constant (KD) using an appropriate binding model (see, e.g., Nikolas Stroth, J Biol Methods. 2016; 3 (1)).
In all figures (FIGS. 1A, 1B, 2A, and 2B), lines on graphs are labeled from top to bottom, beginning with letter “a,” and the corresponding concentration is noted to the right of the figure, next to the letter designating each line.
Surface plasmon resonance (SPR) analyses were performed using Biacore T200 (GE Healthcare). Target protein (“ligand”) was immobilized to a CM5 Series S sensor chip (Cytiva) using amine-coupling chemistry. Running buffer was 0.05% Surfactant P20 in HEPES buffered saline (HBS-P), pH 7.4 (Cytiva). Immobilization was performed at 25° C. Carboxyl groups in each flow cell were activated using a 1:1 mixture of 0.4 M 1-ethyl-3-(3-dimethylaminopropyl)-carbodiimide in water (EDC) and 0.1 M N-hydroxysuccinimide in water (NHS) for 7 minutes. The ligand was prepared in 10 mM Sodium acetate pH 5 (Cytiva). Pulsatile injections were made to target a specific immobilization level. Any remaining amine-reactive esters on the chip surface were blocked with a 7-minute injection of 1 M ethanolamine, pH 8.5. Three 10-second pulses of 50 mM Sodium hydroxide were then made to remove any unbound ligand. Reference cells were modified using amine coupling chemistry, omitting ligand injection.
Increase in signal (RU) is proportional to an increase in binding events between the analyte and ligand surface. The injection was then stopped, and dissociation was measured. The resulting sensorgram has reference surface and blank injection subtracted prior to curve fitting. Measured association (ka, 1/M^s−1) and dissociation (kd, s^−1) were fit to a 1:1 binding model to calculate an equilibrium dissociation constant, KD(M) for each analyte. Equilibrium binding constants (KD) and binding inhibition constants (Ki) estimated from surface plasmon resonance (SPR) or DELFIA® binding assays for exemplary compounds as set forth in Table 2A.
In this example, affinity for mouse Nectin-4 (FIG. 3A) and human Nectin-4 (FIG. 3B) were measured using a 1:1 binding model at twenty-five degrees Celsius. In both of FIGS. 3A and 3B, lines on graphs were labeled from top to bottom, beginning with letter a, and the corresponding concentration was noted to the right of the figure.
“{Biotin-PEG4}-CEYDEEFFTALKRLRGDDICSYIQASFQYLPGLCIEEILDNLGCS (disulfide 1-34, 20-44) [Compound C182]” was tested, and the Kd was 3 nM.
For “{Biotin-PEG4}-CDYDEEFFTALKRLRGDDICEYIQASFQYLPGLCIEEILDNLGCS-OH (disulfide 1-34, 20-44) [Compound C191]”, the Kd was 1.4 nM.
In the case of “{Biotin-PEG4}-CEYDEEFFTALAQLRGGDICYYIQAKFQYLPGLCIEEILDNLGCS (disulfide 1-34, 20-44) [Compound C162]”, the Kd is reported as 8.8 nM.
In the case of “{Biotin-PEG4}-CEYDEEFFTALKRLRGGDICEYIQAAFQYLPGLCIEEILDNLGCS (disulfide 1-34, 20-44) [Compound C198]”, the Kd is reported as 2.3 nM.
In the case of “{Biotin-PEG4}-CEYDEEFFTALARLRGADICYYIQAKFQYLPGDCIEEILDNLGCS (disulfide 1-34, 20-44) [Compound C140]”, the Kd is reported as 1.1 nM.
Work on “{Biotin-PEG4}-CEYDEEFFTALKRLRGADICDYIQASFQYLPGLCIEEILDNLGCS (disulfide 1-34, 20-44) [Compound C195]” yielded a Kd of 2.3 nM.
In the case of “{Biotin-PEG4}-CEYDEEFFTALARLRGGDICYYILAKFQYLPGECIEEILDNLGCS (disulfide 1-34, 20-44) [Compound C145]”, the Kd is reported as 1.3 nM.
Work on “{Biotin-PEG4}-CDYDEEFFTALKRLRGGDICSYIQASFQYLPGLCIEEILDNLGCS (disulfide 1-34, 20-44) [Compound C189]” yielded a Kd of 1.1 nM.
For “{Biotin-PEG4}-CEYDEEFFTALARLRGGDICYYIQAKFQYLPKLCIEEILDNLGCS (disulfide 1-34, 20-44) [Compound C166]”, the Kd was 0.75 nM.
“{Biotin-PEG4}-CEYDEEFFTALARLRGGDICDYIQAKFQYLPGLCIAEILDNLGCS (disulfide 1-34, 20-44) [Compound C157]” showed a Kd of 1.1 nM.
With “{Biotin-PEG4}-CEYDEEFFTALARLRGGDICQYIQAKFQYLPGQCIEEILDNLGCS-OH (disulfide 1-34, 20-44) [Compound C149]” the Kd was 0.75 nM.
`CC[C@H](C)[C@@H]1NC(=O)[C@H](Cc2ccc(O)cc2)NC(=O)[C@H](CO)NC(=O)[C@@H]2CSSC[C@@H](C(=O)N[C@@H](CO)C(=O)O)NC(=O)CNC(=O)[C@H](CC(C)C)NC(=O)[C@H](CC(N)=O)NC(=O)[C@H](CC(=O)O)NC(=O)[C@H](CC(C)C)NC(=O)[C@H]([C@@H](C)CC)NC(=O)[C@H](CCC(=O)O)NC(=O)[C@H](CCC(=O)O)NC(=O)[C@H]([C@@H](C)CC)NC(=O)[C@H](CSSC[C@H](NC(=O)CCOCCOCCOCCOCCNC(=O)CCCC[C@@H]3SC[C@@H]4NC(=O)N[C@@H]43)C(=O)N[C@@H](CCC(=O)O)C(=O)N[C@@H](Cc3ccc(O)cc3)C(=O)N[C@@H](CC(=O)O)C(=O)N[C@@H](CCC(=O)O)C(=O)N[C@@H](CCC(=O)O)C(=O)N[C@@H](Cc3ccccc3)C(=O)N[C@@H](Cc3ccccc3)C(=O)N[C@@H]([C@@H](C)O)C(=O)N[C@@H](C)C(=O)N[C@@H](CC(C)C)C(=O)N[C@@H](CCCCN)C(=O)N[C@@H](CCCNC(=N)N)C(=O)N[C@@H](CC(C)C)C(=O)N[C@@H](CCCNC(=N)N)C(=O)NCC(=O)NCC(=O)N[C@@H](CC(=O)O)C(=O)N[C@@H]([C@@H](C)CC)C(=O)N2)NC(=O)[C@H](CC(C)C)NC(=O)CNC(=O)[C@@H]2CCCN2C(=O)[C@H](CC(C)C)NC(=O)[C@H](Cc2ccc(O)cc2)NC(=O)[C@H](CCC(N)=O)NC(=O)[C@H](Cc2ccccc2)NC(=O)[C@H](CO)NC(=O)[C@H](C)NC(=O)[C@H](CCC(N)=O)NC1=O` [Compound C179] was tested, and the Kd was 1.8 nM.
Work on “{Biotin-PEG4}-CEYDEEFFTALARLRGGDICEYIQAKFQYLEGLCIEEILDNLGCS-OH (disulfide 1-34, 20-44) [Compound C150]” yielded a Kd of 1 nM.
“{Biotin-PEG4}-CEYDEEFFTALA[Cit]LRGDDICSYIQA[X1]FQYLPGLCIEEILDNLGCS-OH (disulfide 1-34, 20-44) [Compound C170]” gave a Kd of 8.8 nM.
With “{Biotin-PEG4}-CEYDEEFFTALARLRGGDICYYIQA[X1]FQYLPGLCIEEILDNLGCS-OH (disulfide 1-34, 20-44) [Compound C164]” the Kd was 5 nM.
Compound “{Biotin-PEG4}-CEYDEEFFTALASLRGGDICYYIQAKFQYLPGLCIEEILDNLGCS-OH (disulfide 1-34, 20-44) [Compound C161]” has a Kd of 7.5 nM.
With “{Biotin-PEG4}-CEYDEEFFTALKRLRGGDICDYIQASFQYLPGLCIEEILDNLGCS-OH (disulfide 1-34, 20-44) [Compound C200]” the Kd was 2 nM.
Compound “{Biotin-PEG4}-CEYDGEFFTALARLRGADICEYIQAKFQYYPGLCIEEILDNLGCS (disulfide 1-34, 20-44) [Compound C144]” has a Kd of 3.7 nM.
For “{Biotin-PEG4}-CDYDEQFFTALKRLRGDDICEYIQASFQYLPGLCIEEILDNLGCS (disulfide 1-34, 20-44) [Compound C193]”, the Kd was 1 nM.
Work on “{Biotin-PEG4}-CEYDEEFFTALKRLRGGDICDYIQASFQYLPGECIEEILDNLGCS (disulfide 1-34, 20-44) [Compound C203]” yielded a Kd of 2.3 nM.
Compound “{Biotin-PEG4}-CEYDGEFFTALARLRGGDICQYIQAKFQYLPGLCIEEILDNLGCS-OH (disulfide 1-34, 20-44) [Compound C158]” has a Kd of 1.1 nM.
For “{Biotin-PEG4}-CEYDEQFFTALKRLRGADICEYIQASFQYLPGLCIEEILDNLGCS (disulfide 1-34, 20-44) [Compound C183]”, the Kd was 1.2 nM.
In the case of “{Biotin-PEG4}-CEYDEEFFTALKRLRGGDICEYIQASFQYLPGECIEEILDNLGCS (disulfide 1-34, 20-44) [Compound C202]”, the Kd is reported as 2.2 nM.
Compound “{Biotin-PEG4}-CEYDEQFFTALKRLRGADICSYIQASFQYLPGLCIEEILDNLGCS (disulfide 1-34, 20-44) [Compound C185]” has a Kd of 1 nM.
“{Biotin-PEG4}-CEYDEEFFTALARLRGSDICLYIQAKFQYLPGLCIEEILDNLGCS (disulfide 1-34, 20-44) [Compound C156]” was tested, and the Kd was 1.1 nM.
